Reference: patent US20150224190A1, “Combination of a phosphoinositide 3-kinase inhibitor and an inhibitor of the IL-8/CXCR interaction” (priority 2012, published 2015)

System: JAK2/STAT5
Test: JAK2/STAT5 activation in human primary triple-negative breast tumors grown in immunodeficient mice
Format: in vivo
Details: 30 mg/kg BEZ235 for 4 days vs vehicle
Procedure: FIG. 4. BEZ235 treatment activates JAK2/STAT5 and IL-8 secretion in human primary triple-negative breast tumors Immunoblots of lysates from primary triple-negative breast tumors grown in immunodeficient mice and treated for 4 days with 30 mg/kg BEZ235 or vehicle (VHC). pJAK2 levels were measured in triplicate by ELISA and normalized to total JAK2 levels (Y-axis).
Cells for Western Blotting and ELISA were lysed with RIPA buffer. […]
For assessing pJAK2 levels, an ELISA assay (Tyr1007/1008, Invitrogen) was applied because of cross-reactivity of all pJAK2 antibodies tested. Interleukin-8 levels in RIPA lysates, cell culture supernatants and mouse tail vein blood plasma were measured by ELISA, as well (Biolegend). […]

Structure (SMILES): Cn1c(=O)n(-c2ccc(C(C)(C)C#N)cc2)c2c3cc(-c4cnc5ccccc5c4)ccc3ncc21 [COMPOUND A, 2-methyl-2-[4-(3-methyl-2-oxo-8-quinolin-3-yl-2,3-dihydro-imidazo[4,5-c]quinolin-1-yl)-phenyl]-propionitrile]
- JAK2/STAT5 activation (pJAK2 normalized to total JAK2, immunoblots): activates
